# Where two headings read alike, the source gives them in different places.
# Experiments:
# [1] = test system: Influenza virus A/whistling swan/Shimane/499/83 (H5N3); format: cell-based, avian influenza virus; details: for effect on the avian influenza virus (ability to inactivate): Example 10, each potassium soap diluted to 0.035 M; for infection dose of the avian influenza virus reduced to / ability to inactivate: Example 9, diluted to 0.0035 mol/L with purified water; for ability to inactivate the avian influenza virus, potassium versus sodium oleate soap: Example 4, 0.35 M oleate soap tested as in Example 2
# feline calicivirus = test: Inactivation ability against infectivity of feline calicivirus (TCID50 on CRFK cells); format: cell-based; details: for inactivation ability against the feline calicivirus, potassium versus sodium oleate soap: Example 4, 0.35 M oleate soap
# [2] = Example 9, diluted to 0.0035 mol/L with purified water
# [3] = Example 8, sample No. 19 versus surface-active agents other than soap (Table 4, 10.32 %)
compound,measurement,setting,value
CCCCC/C=C\C/C=C\CCCCCCCC(=O)[O-].[K+] [C18:2 (linoleate) soap],effect on the avian influenza virus (ability to inactivate),[1],excellent
CCC=CCC=CCC=CCCCCCCCC(=O)[O-].[K+] [C18:3 (linolenate) soap],effect on the avian influenza virus (ability to inactivate),[1],weak
CCCCCCCC/C=C\CCCCCCCC(=O)N(C)CC(=O)O [oleoyl sarcosine],infection dose of the feline calicivirus reduced to / ability to inactivate,feline calicivirus,could not be reduced
same,infection dose of the avian influenza virus reduced to / ability to inactivate,[1],about one-thousandth
"CCCCCCCC/C=C\CCCCCCCC(=O)[O-].[K+] [potassium oleate soap, potassium oleate]","inactivation ability against the feline calicivirus, potassium versus sodium oleate soap",feline calicivirus,no difference
same,infection dose of the feline calicivirus reduced to / ability to inactivate,feline calicivirus; [2],excellent antiviral activity
same,"ability to inactivate the avian influenza virus, potassium versus sodium oleate soap",[1],no difference
same,infection dose of the avian influenza virus reduced to / ability to inactivate,[1],excellent antiviral activity
same,effect on the avian influenza virus (ability to inactivate),[1],excellent
"CCCCCCCC/C=C\CCCCCCCC(=O)[O-].[Na+] [sodium oleate soap, sodium oleate]","inactivation ability against the feline calicivirus, potassium versus sodium oleate soap",feline calicivirus,no difference
same,"ability to inactivate the avian influenza virus, potassium versus sodium oleate soap",[1],no difference
CCCCCCCC/C=C\CCCCCCCCOS(=O)(=O)[O-].[Na+] [sodium oleyl sulfate],infection dose of the feline calicivirus reduced to / ability to inactivate,feline calicivirus,one-tenth or less
same,infection dose of the avian influenza virus reduced to / ability to inactivate,[1],one-tenth or less
Polyoxyethylene sorbitan monooleate,infection dose of the feline calicivirus reduced to / ability to inactivate,feline calicivirus; [2],no ability to inactivate
same,infection dose of the avian influenza virus reduced to / ability to inactivate,[1],no ability to inactivate
Sodium polyoxyethylene alkyl ether sulfate [compound 37],virus inactivation ability / antiviral activity (feline calicivirus),feline calicivirus; [3],low antiviral activity
same,virus inactivation ability / antiviral activity (avian influenza virus),[1]; [3],low antiviral activity
same,cytotoxicity,CRFK cells,high cytotoxicity
same,cytotoxicity,MDCK (+) cells,high cytotoxicity

# — patent US20120046362A1, “ANTIVIRAL AGENT AND CLEANSING AGENT” (priority 2009, published 2012)
